Measurements reported in patent publication US11465987B2, “Compounds for treatment of cancer” (ONCTERNAL THERAPEUTICS, INC., priority 2012, dated 2022).
Like-named read-outs stand apart in the source and are kept apart here.

Tests used:
[1] = test system: WM-164 human melanoma cell line; assay: Cytotoxicity (SRB) assay, WM-164; format: cell-based; conditions: read-out: IC50 ± SEM, WM164 (converted)
[2] = test system: B16-F1 mouse melanoma cell line; assay: Cytotoxicity (SRB) assay, B16-F1; format: cell-based; conditions: read-out: IC50 ± SEM, B16-F1 (converted)
[3] = test system: A375 human melanoma cell line; assay: Cytotoxicity (SRB) assay, A375; format: cell-based; conditions: read-out: IC50 ± SEM, A375 (converted)
[4] = test system: DU 145 human prostate cancer cell line; assay: Cytotoxicity (SRB) assay, DU 145; format: cell-based
From the text: (§1) Cells were stained with SRB solution.

[5] = test system: PPC-1 human prostate cancer cell line; assay: Cytotoxicity (SRB) assay, PPC-1; format: cell-based
From the text: as §1

[6] = test system: PC-3 human prostate cancer cell line; assay: cells
From the text: as §1

[7] = test system: LNCaP human prostate cancer cell line; assay: Cytotoxicity (SRB) assay, LNCaP; format: cell-based
From the text: as §1

[8] = Homo sapiens, DU-145, Table 13A, read-out: inhibitory effects, DU145
[9] = Homo sapiens, PPC-1, Table 13A, read-out: inhibitory effects, PPC1
[10] = Homo sapiens, read-out: inhibitory effects, PC3, Table 13A
[11] = Homo sapiens, LNCaP, Table 13A, read-out: inhibitory effects, LNCaP
[12] = Homo sapiens, DU-145, Table 6A, read-out: IC50 ± SEM, DU 145
[13] = Homo sapiens, PPC-1, Table 6A, read-out: IC50 ± SEM, PPC-1 (converted)
[14] = Homo sapiens, read-out: IC50 ± SEM, PC-3, Table 6A
[15] = Homo sapiens, LNCaP, Table 6A, read-out: IC50 ± SEM, LNCaP (converted)
[16] = Homo sapiens, DU-145, read-out: IC50 ± SEM, DU 145
[17] = Homo sapiens, PPC-1, read-out: IC50 ± SEM, PPC-1
[18] = Homo sapiens, read-out: IC50 ± SEM, PC-3
[19] = Homo sapiens, LNCaP, read-out: IC50 ± SEM, LNCaP

With `COc1cc(C(=O)c2c[nH]c(-c3ccc(O)cc3)n2)cc(OC)c1OC` [12ka, (2-(4-hydroxyphenyl)-1H-imidazol-4-yl)(3,4,5-trimethoxyphenyl)methanone] the IC50 ([1]; Homo sapiens, WM164, Table 12) was 1800 nM, the IC50 ([2]; Mus musculus, B16-F1, Table 12) was 2400 nM and the IC50 ([3]; Homo sapiens, A-375, Table 12) was 1600 nM.
`O=C(c1ccc(F)cc1)c1c[nH]c(-c2ccc(O)cc2)n1` [12kb] was tested, and the IC50 ([4]; Table 12, read-out: IC50 ± SEM, Du 145) was over 10000 nM, the IC50 ([1]; Table 12) was over 10000 nM and the IC50 ([5]; Table 12, read-out: IC50 ± SEM, PPC-1 (converted)) was over 10000 nM. The IC50 ([6]; read-out: IC50 ± SEM, PC-3, Table 12) was over 10000 nM, the IC50 ([7]; Table 12, read-out: IC50 ± SEM, LNCaP (converted)) was 10000 nM and the IC50 ([2]; Table 12) was over 10000 nM. It also gave an IC50 ([3]; Table 12) of 10000 nM.
`O=C(c1cc(O)c(O)c(O)c1)c1c[nH]c(-c2ccc(Cl)cc2)n1` [13fa, (2-(4-chlorophenyl)-1H-imidazol-4-yl)(3,4,5-trihydroxyphenyl)methanone] was tested, and the IC50 ([1]; Homo sapiens, WM164, Table 12) was 2100 nM, the IC50 ([6]; Homo sapiens, read-out: IC50 ± SEM, PC-3, Table 12) was 10000 nM and the IC50 ([2]; Mus musculus, B16-F1, Table 12) was 1810 nM. The IC50 ([3]; Homo sapiens, A-375, Table 12) was 3900 nM.
With `O=C(c1cc(O)c(O)c(O)c1)c1c[nH]c(-c2ccc(O)c(O)c2)n1` [13ha] the IC50 ([1]; Table 12) was over 10000 nM, the IC50 ([2]; Table 12) was over 10000 nM and the IC50 ([3]; Table 12) was over 10000 nM.
`COc1cc(C(=O)c2nc(-c3ccccc3)cn2Cc2ccccc2)cc(OC)c1OC` [70o, (1-Benzyl-4-phenyl-1H-imidazol-2-yl)(3,4,5-trimethoxyphenyl)methanone] showed an IC50 [4, 8] of 160 nM, an IC50 [5, 9] of 77 nM and an IC50 [6, 10] of 72 nM. The IC50 [7, 11] was 67 nM.
For `COc1cc(C(=O)c2nc(-c3ccccc3)cn2C2CCCC2)cc(OC)c1OC` [70p, (1-cyclopentyl-4-phenyl-1H-imidazol-2-yl)(3,4,5-trimethoxyphenyl)methanone], the IC50 [4, 8] was 167 nM, the IC50 [5, 9] was 63 nM and the IC50 [6, 10] was 56 nM. The IC50 [7, 11] was 51 nM.
In the case of `O=C(c1csc(-c2ccccc2)n1)c1c(F)c(F)c(F)c(F)c1F` [compound 17], the IC50 [4, 12] is reported as 2600 nM, the IC50 [5, 13] is reported as 1300 nM and the IC50 [6, 14] is reported as 1900 nM. The IC50 [7, 15] was 2100 nM.
With `COc1cc(C(=O)c2csc(-c3ccccc3)n2)cc(OC)c1OCCN1C(=O)c2ccccc2C1=O` [compound 20] the IC50 [4, 12] was 642 nM, the IC50 ([1]; Homo sapiens, WM164, Table 6A) was 1300 nM and the IC50 [5, 13] was 633 nM. For the same compound, the IC50 [6, 14] was over 10000 nM, the IC50 [7, 15] was 1450 nM and the IC50 ([2]; Mus musculus, B16-F1, Table 6A) was 3100 nM. It also gave an IC50 ([3]; Homo sapiens, A-375, Table 6A) of 2300 nM.
Compound `COc1ccc(C(=O)n2ccnc2-c2ccc(F)cc2)cc1` [compound 24] has an IC50 ([1]; Table 6A) of over 10000 nM and an IC50 ([7]; Table 6A, read-out: IC50 ± SEM, LNCaP (converted)) of over 10000 nM.
For `COc1cc(C(=O)c2csc(-c3cccs3)n2)cc(OC)c1OC` [compound 25], the IC50 [4, 16] was 24 nM, the IC50 [5, 17] was 13 nM and the IC50 [6, 18] was 44 nM. For the same compound, the IC50 [7, 19] was 48 nM.
`COc1cc(C(=O)c2csc(-c3ccc(N)cc3)n2)cc(OC)c1OC` [compound 26] showed an IC50 [4, 16] of 16 nM, an IC50 [5, 17] of 15 nM and an IC50 [6, 18] of 16 nM. It also gave an IC50 [7, 19] of 23 nM.
`Cc1ccc(-c2nc(C(=O)c3ccc(F)cc3)cn2C(=O)c2ccc(F)cc2)cc1` [compound 29] gave an IC50 [4, 12] of over 10000 nM, an IC50 [5, 13] of over 10000 nM and an IC50 [6, 14] of over 10000 nM. The IC50 [7, 15] was 1790 nM.
For `COc1cc(C(=O)c2cccc(-c3cc(OC)c(OC)c(OC)c3)c2)cc(OC)c1OC` [compound 35], the IC50 [4, 16] was 21900 nM, the IC50 [5, 17] was 15000 nM and the IC50 [6, 18] was 40100 nM. For the same compound, the IC50 [7, 19] was 1500 nM.
For `COc1cc(-c2cccc(CO)c2)cc(OC)c1OC` [compound 39], the IC50 [4, 12] was 16800 nM, the IC50 [5, 13] was 21400 nM and the IC50 [6, 14] was 32500 nM. It also gave an IC50 [7, 15] of 4300 nM.
